Data as given in US20070087330A1, “Viral deconstruction through capsid assembly in vitro” (priority 2002, published 2007).

How the values were obtained:
[1] = test system: HBV core polypeptides / HBV capsids; assay type: biochemical
Protocol: Following translation of HBV core transcript for 30 min, the translation product was diluted in 0.01% Nil(kol buffer and centrifuged on a 10-50% sucrose gradient. The supernatant was removed and the pellet was resuspended in buffer and divided into equal aliquots. To one aliquots was added apyrase (A, top) while the control was incubated in buffe alone (A, bottom). Incubations were done at 25° C. for 90 min. Reaction mixtures were then centrifuged on standard 10-50% sucrose gradients. Fractions were analyzed by SDS-PAGE and autoradiography. In a separate experiment (B) the pellet was isolated and resuspended in identical fashion. To one aliquot was added wheat germ extract as well as unlabeled energy mix. (B, top); to the second aliquot was added wheat germ extract and apyrase (B, botton).
To address this, pellet material was isolated by fractionating the products of a 30-min translation of HBV core on a sucrose gradient and resuspending the pellet in buffer. The resuspended pellet was divided into equal aliquots and treated either with aphyase or with buffer for 90 min at 24° C.
Treatment of the isolated pellet with apyrase and wheat germ extract (FIG. 23B, bottom).

[2] = test system: HIV capsid assembly (Gag Pr55); test: Cell-free HIV capsid assembly in wheat germ extract, analysed by velocity sedimentation; assay type: biochemical
Protocol: Translation of the transcription products was carried out in wheat germ extract containing ^35S methionine (ICN Pharmaceuticals, Costa Mesa, Calif.). Wheat germ was obtained from General Mills. Wheat germ extract was prepared as described by Erickson and Blobel (1983) supra with indicated modifications. Three grams of wheat germ were placed in a mortar and ground in 10 ml homogenization buffer (100 mM K-acetate, 1 mM Mg-acetate, 2 mM CaC12, 40 mM HEPES buffer, pH 7.5 (Sigma Chemicals, St. Louis, Mo.), 4 mM dithiothreitol) to a thick paste. The homogenate was scraped into a chilled centrifuge tube and centrifuged at 4° C. for 10 min at 23,000×g. The resulting supernatant was centrifuged again under these conditions to provide an S23 wheat germ extract. Improved assembly was obtained when the S23 wheat germ extract was further subjected to ultracentrifugation at 50,000 rpm in the TLA 100 rotor (100,000×g) (Beckman Instruments, Palo Alto, Calif.) for 15 min at 4° C. and the supernatant used for in vitro translation. […] This supernatant is referred to herein as a “high speed wheat germ extract supernatant”. Reactions were performed as previously described (Lingappa, J. R., et al., J. Cell. Biol. (1984) 125:99-111), except for modifications noted below.
A 25 μl wheat germ transcription/translation reaction mixture contained: 5 μl Gag transcript, 5 μl ^35—S Energy Mix 5× stock (Sigma Chemical Co., St. Louis, Mo.), 2.5 μl Compensating Buffer (Sigma Chemical Co.), 1.0 μl 40 mM MgAcetate (Sigma Chemical Co.), 2.0 μl 125 μM Myristoyl CoA (made up in 20 mM Tris Acetate, pH 7.6; Sigma Chemical Co.), 3.75 μl 20 mM Tris Acetate buffer, […] (U.S. Biochemicals; Cleveland, Ohio), 0.25 μl creatine kinase (4 mg/ml stock in 50% glycerol, 10 mM Tris Acetate; Boehringer Mannheim, Indianapolis, Ind.), 0.25 μl bovine tRNA (10 mg/ml stock; Sigma Chemical Co.), and 0.25 μl RNAse Inhibitor (20 units/50; Promega). […]
The purpose of this experiment was to use the cell-free system for detecting HIV assembly intermediates that would be otherwise difficult or impossible to detect. A continuously labeled cell-free reaction was analyzed by velocity sedimentation. […] Upon completion of the cell-free reaction, the products were diluted into 1% NP40 sample buffer on ice, and were analyzed by velocity sedimentation on 13 ml 15-60% sucrose gradients. Fractions were collected from the top of each gradient, and the amount of radiolabeled Pr55 protein in each fraction was determined and expressed as percent of total Pr55 protein present in the reaction. The calculated positions of 10S, 80S, 150S, 500S, and 750S complexes are indicated with markers above the figures (see FIG. 3A). […]

Chain of HBV core polypeptides / HBV capsids (P03146 whole entry): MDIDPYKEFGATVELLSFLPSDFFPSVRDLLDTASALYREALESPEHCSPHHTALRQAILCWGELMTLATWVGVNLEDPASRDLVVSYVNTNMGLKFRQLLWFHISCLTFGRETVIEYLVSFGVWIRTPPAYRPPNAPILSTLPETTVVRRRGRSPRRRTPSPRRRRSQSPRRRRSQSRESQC

For `CC[C@H]1CN2CCc3cc(OC)c(OC)cc3[C@@H]2C[C@@H]1C[C@H]1NCCc2cc(OC)c(OC)cc21` [emetine], the “Effect on results of treating the isolated pellet with energy substrates or apyrase” value ([1]; protein synthesis inhibitor added) was “did not affect”.

For apyrase, the “Effect of treating the isolated pellet material” value ([1]; pellet of a 30-min translation, 90 min at 24° C.) was “release of completed capsids from the pellet”, the “A (material in fractions of assembly intermediate complex A)” value ([2]; radiolabeled Pr55 in 10S complex A, apyrase added post-translationally, detergent cotranslationally) was 2851 and the “B/C (material in fractions of assembly intermediate complexes B and C)” value ([2]; radiolabeled Pr55 in 80S/150S complexes B and C, apyrase added post-translationally, detergent cotranslationally) was 5999. The “Final Capsid (material in fractions of the completed capsid)” value ([2]; radiolabeled Pr55 in 750S completed capsid position, apyrase added post-translationally, detergent cotranslationally) was 133 and the “Effect of treatment on assembly intermediates” value ([2]; velocity sedimentation, compared with the untreated reaction) was “accumulation of additional material in complexes B and C”.

For `O=C(O)CN(CCN(CC(=O)O)CC(=O)O)CC(=O)O` [EDTA], the “Effect on relative distribution of labeled core polypeptides in top, middle and pellet regions” value ([1]; 10 mM, translation products treated) was “had no effect”.
